According to the supplement of paper PMC11451515:

Test system: SEM cells
Assay: cell viability relative to DMSO control; higher = less cytotoxic
Settings: 48 h
Method in brief: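 Before seeding, each leukemia line was adapted for at least four passages in each medium. NOMO1 or SEM cells (500 cells/well) and P12-Ichikawa cells (1000 cells/well) went into 1536-well plates at 5 μl, then received library compounds in DMSO by pin dosing across 11 threefold concentrations, 47 μM to 0.79 nM. Readout was CellTiter-Glo One luminescence after 48 h at 37°C, and viability is given as a per-plate percentage of DMSO wells, with cell-free wells as background.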

[1] = HPLM + 10% dialyzed FBS, 0.000781 µM
[2] = HPLM + 10% dialyzed FBS, 0.00234 µM
[3] = HPLM + 10% dialyzed FBS, 0.00702 µM
[4] = HPLM + 10% dialyzed FBS, 0.0211 µM
[5] = HPLM + 10% dialyzed FBS, 0.0632 µM
[6] = HPLM + 10% dialyzed FBS, 0.19 µM
[7] = HPLM + 10% dialyzed FBS, 0.569 µM
[8] = HPLM + 10% dialyzed FBS, 1.71 µM
[9] = HPLM + 10% dialyzed FBS, 5.12 µM
[10] = HPLM + 10% dialyzed FBS, 15.4 µM
[11] = HPLM + 10% dialyzed FBS, 46.1 µM
[12] = RPMI 5 mM glucose + 10% FBS, 0.000781 µM
[13] = RPMI 5 mM glucose + 10% FBS, 0.00234 µM
[14] = RPMI 5 mM glucose + 10% FBS, 0.00702 µM
[15] = RPMI 5 mM glucose + 10% FBS, 0.0211 µM
[16] = RPMI 5 mM glucose + 10% FBS, 0.0632 µM
[17] = RPMI 5 mM glucose + 10% FBS, 0.19 µM
[18] = RPMI 5 mM glucose + 10% FBS, 0.569 µM
[19] = RPMI 5 mM glucose + 10% FBS, 1.71 µM
[20] = RPMI 5 mM glucose + 10% FBS, 5.12 µM
[21] = RPMI 5 mM glucose + 10% FBS, 15.4 µM
[22] = RPMI 5 mM glucose + 10% FBS, 46.1 µM
[23] = RPMI 5 mM glucose + 10% dialyzed FBS, 0.000781 µM
[24] = RPMI 5 mM glucose + 10% dialyzed FBS, 0.00234 µM
[25] = RPMI 5 mM glucose + 10% dialyzed FBS, 0.00702 µM
[26] = RPMI 5 mM glucose + 10% dialyzed FBS, 0.0211 µM
[27] = RPMI 5 mM glucose + 10% dialyzed FBS, 0.0632 µM
[28] = RPMI 5 mM glucose + 10% dialyzed FBS, 0.19 µM
[29] = RPMI 5 mM glucose + 10% dialyzed FBS, 0.569 µM
[30] = RPMI 5 mM glucose + 10% dialyzed FBS, 1.71 µM
[31] = RPMI 5 mM glucose + 10% dialyzed FBS, 5.12 µM
[32] = RPMI 5 mM glucose + 10% dialyzed FBS, 15.4 µM
[33] = RPMI 5 mM glucose + 10% dialyzed FBS, 46.1 µM

SMILES	cell viability [1] [%]	cell viability [2] [%]	cell viability [3] [%]	cell viability [4] [%]	cell viability [5] [%]	cell viability [6] [%]	cell viability [7] [%]	cell viability [8] [%]	cell viability [9] [%]	cell viability [10] [%]	cell viability [11] [%]	cell viability [12] [%]	cell viability [13] [%]	cell viability [14] [%]	cell viability [15] [%]	cell viability [16] [%]	cell viability [17] [%]	cell viability [18] [%]	cell viability [19] [%]	cell viability [20] [%]	cell viability [21] [%]	cell viability [22] [%]	cell viability [23] [%]	cell viability [24] [%]	cell viability [25] [%]	cell viability [26] [%]	cell viability [27] [%]	cell viability [28] [%]	cell viability [29] [%]	cell viability [30] [%]	cell viability [31] [%]	cell viability [32] [%]	cell viability [33] [%]
C#CCN[C@@H]1CCc2ccccc21.CS(=O)(=O)O	105	101	83.6	86.2	110	108	107	106	41.2	91.7	89.2	103	112	56.8	97.3	112	105	106	100	24.4	96	95.2	107	116	74.2	82.9	99.7	105	99.8	106	42.8	110	86.3
NC(=O)NO	83	79.5	89.4	85.6	93.5	96.1	80.1	75.2	31.6	13.8	2.15	99.3	89.3	96.1	94.8	100	93	103	86.1	37.2	7.56	1.61	77.9	79.6	93	88.4	96.2	84.4	95.5	87	32.3	5.86	1.96
NC(=O)OCC(COC(N)=O)c1ccccc1	91	99.6	102	87.3	101	86.1	103	104	92.8	91	90.6	119	121	104	119	113	113	102	115	99.8	117	105	99.7	107	99.4	115	111	99.9	109	99	97.9	101	105
CCN1CCCC1CNC(=O)c1cc([S+](N)(=O)[O-])ccc1OC (stereo unspecified)	90	88.7	97.6	87.3	102	90.1	102	107	108	69.1	102	96.8	102	112	92.4	105	111	106	112	102	66	97.8	102	91.6	110	113	118	122	107	123	133	59.1	121
CCOC(=O)/C=C/[C@H](C[C@@H]1CCNC1=O)NC(=O)[C@@H](CC(=O)[C@@H](NC(=O)c1cc(C)on1)C(C)C)Cc1ccc(F)cc1	90.8	101	103	90.4	111	116	110	116	115	113	105	115	121	118	79.8	127	116	123	127	115	97.3	104	100	120	119	82.5	136	133	128	127	129	132	108
NC(=O)c1ncn([C@@H]2O[C@H](CO)[C@@H](O)[C@H]2O)c1O	128	118	82.8	120	117	117	115	130	118	123	104	112	127	89.1	137	131	131	115	118	121	117	114	98.7	104	85.8	128	121	104	112	115	113	116	113
C=CCc1ccc(O)c(-c2ccc(O)c(CC=C)c2)c1	103	107	109	95.3	120	112	105	56.1	40.6	40.4	37.6	78.6	88.8	93.2	85.1	93.6	108	79.1	20	14.7	21.4	17.6	98.8	101	109	89.6	109	107	94	27.2	20.6	21.4	24.6
OCCC#Cc1nc(-c2ccc(F)cc2)c(-c2ccncc2)n1CCCc1ccccc1	86.8	115	115	120	118	109	131	123	124	105	88.4	98.3	122	112	118	103	130	116	127	126	107	85.8	–	–	–	–	–	–	–	–	–	–	–
CC(NCCc1ccc(O)cc1)C(O)c1ccc(O)cc1 (stereo unspecified)	84.4	80.5	73	89	86.1	84.1	74.6	98.7	90.7	105	84.8	106	110	109	111	97.5	103	92.5	107	98.2	103	99.4	133	119	122	118	117	110	90.6	112	105	111	81.9
COc1cc(C)c(Sc2cnc(NC(=O)c3ccc(CNC(C)C(C)C)cc3)s2)cc1C(=O)N1CCN(C(C)=O)CC1 (stereo unspecified)	119	134	124	118	96.6	105	96.2	104	81.7	42	108	115	135	111	129	109	112	110	112	73.9	43.4	121	124	141	116	118	121	118	109	102	79.9	49.7	132
Cc1ncc([N+](=O)[O-])n1CC(C)O (stereo unspecified)	60.5	75.1	69.3	75.5	57.6	71.4	91.4	88.1	81.6	82.8	13.3	78.9	99.3	89.4	99.8	64.6	97.8	102	110	96.2	101	14.8	84.2	101	98.4	99.3	84.6	104	118	119	110	99.6	14
C1CCN2C[C@H]3C[C@H](\C=C/4CCCN[C@@H]34)[C@H]2C1	91.7	108	105	107	115	115	113	108	101	123	112	95.2	105	89.2	118	103	110	102	96	95.7	118	120	99.6	102	109	127	103	117	103	104	95.8	122	122
N#C/N=C(\NCCCCCCOc1ccc(Cl)cc1)Nc1ccncc1	18.5	14.6	11.7	11.6	10.7	9.6	9.68	8.04	7.4	6.52	4.48	11	12.1	9.46	9.27	8.63	8.09	6.61	4.33	4.15	3.83	1.91	15	11	9.5	8.99	8.27	8.14	7.35	6.51	5.93	4.36	2.76
CCN(c1ccccc1)c1cc(NC)[n+](C)c(C)n1	110	107	108	101	107	114	99.5	116	104	102	97.9	111	97.2	96.4	105	99.5	101	87.7	100	105	95.3	101	101	105	97.4	108	99.9	97.4	105	99.1	107	106	100
N[S+](=O)([O-])OC[C@@H]1C[C@@H](n2ccc3c(N[C@H]4CCc5ccccc54)ncnc32)C[C@@H]1O	96.3	98.3	104	94.2	105	122	101	53.1	27.8	14.2	7.9	101	121	119	101	101	117	113	48.4	24.5	10.3	8.49	90.8	95.4	95.7	92.1	97.3	111	103	35.8	23.8	12.1	8.74
CC1(C)C(N(O)C(=O)Nc2ccc(Cl)cc2)N(c2ccc(Cl)cc2)C(=O)N1CC(=O)N/N=C/C=C/c1ccc([N+](=O)[O-])o1 (stereo unspecified)	128	117	120	119	122	81.4	110	117	52.7	107	3.81	–	–	–	–	–	–	–	–	–	–	–	114	115	111	113	121	91.6	104	99.1	30.9	80.8	2.64
